Experimental findings from patent US10844092B2, “Peptide for promoting regeneration of dentin or dental pulp tissue” (HysensBio Co., Ltd., priority 2016, dated 2020) are described below.

The test system of one assay is Dspp gene. Briefly: mRNA level of Dspp gene in MDPC-23 cells by real-time PCR. It counts as cell-based, mouse. The settings on record: 48 hours, ratio relative to Dspp mRNA level of control group, triplicate. The method, then: The MDPC-23 cells cultured in Example 2-1 were treated with the peptides of the respective groups which were synthesized in Example 1, and cultured for 48 hours. Then, mRNA levels of an odontoblast differentiation marker Dspp gene expressed in the MDPC-23 cells were measured, and a ratio of the measured Dspp mRNA level relative to a Dspp mRNA level measured in a control group was calculated, respectively (Tables 13 to 24). Further, mean values of the Dspp mRNA levels measured in the peptides of respective groups were compared between the groups (FIG. 1B). In this regard MDPC-23 cells which were treated with none of the peptides of the present invention were used as a control group.
The expression levels of the Dspp gene were measured by RT-PCR and real time PCR analysis: In detail, total RNA was extracted from the MDPC-23 cells with TRIzol reagent. 2 μg of the total RNA, 1 μl of reverse transcriptase, and 0.5 μg oligo (dT) were used to synthesize cDNA. The synthesized cDNA were used in real-time polymerase chain reaction. The real-time polymerase chain reaction was performed on an ABI PRISM 7500 sequence detection system (Applied Biosystems) using the following primers and a SYBR GREEN PCR Master Mix (Takara, Japan). The real-time polymerase chain reaction was performed under conditions of 94° C., 1 min; 95° C., 15 sec 60° C., 34 sec for 40 cycles. Results were analyzed by a comparative cycle threshold (CT) method. In this regard, Gapdh gene was used as an internal control. The experiments were performed in triplicate, and then mean values and standard deviations thereof were taken as measured values.
(In general: Quantitative PCR measures a nucleic acid by following its amplification.)

The subject of assay [1] is physiologic dentin (tertiary dentin). In words: Indirect pulp capping canine model, physiologic (tertiary) dentin formation. It counts as in vivo, dogs. The settings on record: 1.5 μg, 3 weeks. An excerpt:
In detail, to establish dentin-damaged canine models by indirect pulp capping, a part of enamel in the cervical part was removed from the premolars of 12-month-old adult dogs by using a dental bur. The dentin was shallowly removed according to the exposure degree of the dentin to form a shallow cavity, thereby establishing a shallow cavity model. The dentin was deeply removed such that the dental pulp was seen through, but not exposed to the outside, thereby establishing a deep cavity model. The models were treated with the control group, the peptide of Group 11, or the peptide of Group 12. 3 weeks later, the adult dogs were euthanized, and teeth were extracted therefrom.
The extracted teeth were fixed in 4% paraformaldehyde for 2.4 hours, washed with PBS (pH 7.4) several times, and then decalcified with 10% formic acid. The decalcified teeth were embedded in paraffin to prepare tissue sections. The tissue sections were stained with hematoxylin/eosin (H&E), and dentin regeneration capabilities were evaluated by histological analysis.

The test system is the same in assay [2]. In words: Direct pulp capping canine model, physiologic (tertiary) dentin formation. The settings on record: exposed pulp, peptide 1.5 μg, sealed with MTA, covered with GI cement, 3 weeks, FIG. 12. It counts as in vivo, dogs. The procedure: In detail, to establish dentin-damaged canine models by direct pulp capping, the enamel and dentin in the cervical part were removed from the premolars of 12-month-old adult dogs by using a dental bur so that the dental pulp was exposed to the outside. The models were treated with the control group, the peptide of Group 11, or the peptide of Group 12. 3 weeks later, the adult dogs were euthanized and teeth were extracted therefrom.
The extracted teeth were fixed in 4% paraformaldehyde for 24 hours, washed with PBS (pH 7.4) several times, and then decalcified with 10% formic acid. The decalcified teeth were embedded in paraffin to prepare tissue sections. The tissue sections were stained with hematoxylin/eosin (H&E), and dentin regeneration capabilities were evaluated by histological analysis.

A further assay has as its system DSP. Briefly: Immunostaining of transplanted tissues for DSP. It counts as in vivo, immunocompromised mice. An excerpt: (§1) Briefly, the removed tissues were fixed in 4% paraformaldehyde, decalcified in 10% EDTA (pH 7.4), embedded in paraffin, and then immunostained with anti-DSP and anti-BSP antibodies at a dilution of 1:150 as primary antibodies, and reacted with biotin-labeled goat anti-rabbit IgG (Vector Labs) as secondary antibodies to determine DSP and BSP levels (FIG. 4). In this regard, the tissue transplanted with an implant including none of the peptides of the present invention was used as a control group.
(§2) In this regard, a tissue transplanted with an implant including none of the peptides of the present invention was used as a control group.

The subject of a further assay is BSP. Briefly: Immunostaining of transplanted tissues for BSP. It counts as in vivo, immunocompromised mice.
Excerpt: as §1, §2

In assay [3] the test system is root canal spaces of human teeth. In words: Implant transplanted into root canal spaces of human teeth (H-E, SEM). It counts as in vivo. The settings on record: 6 weeks. The method, then: Reportedly, the dentinal wall and the empty pulp cavity of a natural tooth provide the specific local environment for the regeneration of dentin/pulp-like tissues by dental pulp cells (Huang G T, et al. (2010) Tissue engineering. Part A 16(2):605-615). Therefore, formation of dentin/pulp-like tissues in root canal spaces was evaluated.
In detail, among the implants prepared in Example 3-1, a comparative implant or an implant including the peptide of Group 12 (SEQ ID NO: 96) at a concentration of 10 μg/ml was transplanted into the root canal spaces of human teeth for 6 weeks, and dentin dental pulp-like tissues formed in the respective implants were subjected to hematoxylin-eosin (H-E) staining according to the method of Example 3-1, and photographed by a scanning electron microscope according to the method of Example 3-7 (FIG. 9).

Where [4] appears, read: deep cavity model, together with GI cement, FIG. 11.
The mark [5] stands for this setting: 6 weeks after transplantation, FIG. 4.
[6] abbreviates: 12 weeks after transplantation, FIG. 7.

Regarding “75 (KYKQRRKSKY; Synthetic construct of novel peptide) [compound 75]”, the “mRNA level of Dspp gene, Mean” value in the assay with Dspp gene amounted to 1.997.
In the case of “76 (KYKQRRRSKY; Synthetic construct of novel peptide) [compound 76]”, the “mRNA level of Dspp gene, Mean” value with Dspp gene is 2.351.
Consider “77 (KYKQKKKSKY; Synthetic construct of novel peptide) [compound 77]”, for which the “mRNA level of Dspp gene, Mean” value with Dspp gene is listed as 1.729.
As for “78 (KYKQKRKSKY; Synthetic construct of novel peptide) [compound 78]”, the “mRNA level of Dspp gene, Mean” value in the assay on Dspp gene is recorded as 2.635.
On to “79 (KYKQKKRSKY; Synthetic construct of novel peptide) [compound 79]”, for which the “mRNA level of Dspp gene, Mean” value with Dspp gene is given as 2.231.
In the case of “80 (KYKQKRRSKY; Synthetic construct of novel peptide) [compound 80]”, in the assay on Dspp gene, the “mRNA level of Dspp gene, Mean” value turned out to be 1.837.
As to “81 (KYKQRKKNYK; Synthetic construct of novel peptide) [compound 81]”, the “mRNA level of Dspp gene, Mean” value with Dspp gene is on record as 3.092.
“82 (KYKQRKRNYK; Synthetic construct of novel peptide) [compound 82]”: the “mRNA level of Dspp gene, Mean” value with Dspp gene stood at 3.361.
For the substance “83 (KYKQRRKNYK; Synthetic construct of novel peptide) [compound 83]”, the “mRNA level of Dspp gene, Mean” value in the assay with Dspp gene was determined as 3.572.
For “84 (KYKQRRRNYK; Synthetic construct of novel peptide) [compound 84]”, the “mRNA level of Dspp gene, Mean” value with Dspp gene worked out at 3.702.
On the same count and under the same terms, the result for “85 (KYKQKKKNYK; Synthetic construct of novel peptide) [compound 85]” reads 3.670; that for “86 (KYKQKRKNYK; Synthetic construct of novel peptide) [compound 86]”, 3.705.
For “87 (KYKQKKRNYK; Synthetic construct of novel peptide) [compound 87]”, in the assay on Dspp gene, the “mRNA level of Dspp gene, Mean” value is given as 3.888.
“88 (KYKQKRRNYK; Synthetic construct of novel peptide) [compound 88]”: in the assay on Dspp gene, the “mRNA level of Dspp gene, Mean” value stood at 4.021.
Same read-out and setting: as for “89 (KYKQRKKSYK; Synthetic construct of novel peptide) [compound 89]”, the figure is 4.211; as for “90 (KYKQRKRSYK; Synthetic construct of novel peptide) [compound 90]”, 4.811; as for “91 (KYKQRRKSYK; Synthetic construct of novel peptide) [compound 91]”, 4.362.
Consider “92 (KYKQRRRSYK; Synthetic construct of novel peptide) [compound 92]”, for which the “mRNA level of Dspp gene, Mean” value in the assay with Dspp gene is recorded as 4.211.
As for “93 (KYKQKKKSYK; Synthetic construct of novel peptide) [compound 93]”, the “mRNA level of Dspp gene, Mean” value in the assay with Dspp gene is on record as 4.525.
Regarding “94 (KYKQKRKSYK; Synthetic construct of novel peptide) [compound 94]”, the “mRNA level of Dspp gene, Mean” value in the assay on Dspp gene was 3.836.
“95 (KYKQKKRSYK; Synthetic construct of novel peptide) [compound 95]”: in the assay on Dspp gene, the “mRNA level of Dspp gene, Mean” value is 4.620.
Turning to “96 (KYKQKRRSYK; Synthetic construct of novel peptide) [compound 96]”, in the assay on Dspp gene, the “mRNA level of Dspp gene, Mean” value was determined as 5.211.
With “KYKQKKRNYK (Synthetic construct of novel peptide) [SEQ ID NO: 87]”, the “dentin regeneration (histological analysis, H&E)” value was “regeneration of physiologic tertiary dentin (TD) which was continuous with the odontoblast processes of the original dentin structure was observed” in assay [1] (setting [4]); “regeneration of physiologic tertiary dentin (TD) which was continuous with the odontoblast processes of the original dentin structure was observed” in assay [1] (shallow cavity model, FIG. 10); “new physiologic dentin (TD) which was continuous with the odontoblast processes of the original dentin was formed” in assay [2]. The values for the DSP expression level entry in the assay with DSP (setting [5]) and with DSP (setting [6]) were “relatively high DSP expression level” and “relatively very high DSP expression levels”, respectively. Further, the BSP expression level result with BSP (setting [5]) and with BSP (setting [6]) was “low BSP expression level” each time.
In the case of “KYKQKRRSYK (Synthetic construct of novel peptide) [SEQ ID NO: 96]”, the “dentin regeneration (histological analysis, H&E)” value in assay [1] (setting [4]) is “regeneration of physiologic tertiary dentin (TD) which was continuous with the odontoblast processes of the original dentin structure was observed”; in assay [1] (shallow cavity model, FIG. 10) it was “regeneration of physiologic tertiary dentin (TD) which was continuous with the odontoblast processes of the original dentin structure was observed”; in assay [2], “new physiologic dentin (TD) which was continuous with the odontoblast processes of the original dentin was formed”. The “pulp-like tissue formation inside root canals (H-E)” value in assay [3] (10 μg/ml, FIG. 9) was “vascularized pulp-like tissues were formed”. The “newly formed dentin in root canal (H-E)” value in assay [3] (FIG. 9 C, D and D′) was “newly formed dentin was observed in the existing dentinal wall”. Also, in assay [3] (FIG. 9 C, D and D′), the “odontoblast-like cells on existing dentinal wall (H-E)” value is recorded as “odontoblast-like cells exhibited a palisade arrangement on the existing dentinal wall”. For the same substance, the “odontoblast-like cells on existing dentinal wall (scanning microscopic images)” value in assay [3] (FIG. 9 G and H) is listed as “odontoblast-like cells exhibited a palisade arrangement on the existing dentinal wall”. The DSP expression level entry in the assay with DSP (setting [5]) was “relatively high DSP expression level”; in the assay with DSP (setting [6]) it was “relatively very high DSP expression levels”. Further, the BSP expression level result in the assay with BSP (setting [5]) and with BSP (setting [6]) was “low BSP expression level” throughout.
